Experimental data published in ChEMBL document CHEMBL1201862, “PubChem BioAssay data set” (2004).
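In this assay, cells in 96-well plates receive the compound at five concentrations for 48 hours. Endpoints are linearly interpolated between the surrounding concentrations. GI50 is the concentration that inhibits growth by half.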 Calls of active or inactive are those of the source. No stated cut-off is given here; in the data, active = GI50 up to about 1.1 µM and inactive = higher.

Key:
Assay in all cases: growth of human tumour cells (NCI), 48 h
786-0 = system: 786-0
A498 = system: A498
A549 = system: A549
ACHN = system: ACHN
CAKI-1 = system: CAKI-1
CCRF-CEM = system: CCRF-CEM
COLO 205 = system: COLO 205
DLD-1 = system: DLD-1
DMS-114 = system: DMS-114
DMS-273 = system: DMS-273
EKVX = system: EKVX
HCC 2998 = system: HCC 2998
HCT-116 = system: HCT-116
HCT-15 = system: HCT-15
HL-60 = system: HL-60
HOP-18 = system: HOP-18
HOP-62 = system: HOP-62
HOP-92 = system: HOP-92
HT-29 = system: HT-29
IGROV-1 = system: IGROV-1
KM-20L2 = system: KM-20L2
KM12 = system: KM12
LOX IMVI = system: LOX IMVI
LXFL 529 = system: LXFL 529
M14 = system: M14
M19-MEL = system: M19-MEL
MOLT-4 = system: MOLT-4
Malme-3M = system: Malme-3M
NCI-H226 = system: NCI-H226
NCI-H460 = system: NCI-H460
NCI-H522 = system: NCI-H522
OVCAR-3 = system: OVCAR-3
OVCAR-4 = system: OVCAR-4
OVCAR-5 = system: OVCAR-5
OVCAR-8 = system: OVCAR-8
RPMI-8226 = system: RPMI-8226
RXF 393 = system: RXF 393
RXF 631 = system: RXF 631
SF-268 = system: SF-268
SF-295 = system: SF-295
SF-539 = system: SF-539
SK-MEL-28 = system: SK-MEL-28
SK-MEL-5 = system: SK-MEL-5
SK-OV-3 = system: SK-OV-3
SN12C = system: SN12C
SNB-19 = system: SNB-19
SNB-75 = system: SNB-75
SNB-78 = system: SNB-78
SR = system: SR
SW-620 = system: SW-620
TK-10 = system: TK-10
U-251 = system: U-251
UACC-257 = system: UACC-257
UACC-62 = system: UACC-62
UO-31 = system: UO-31
K562 = system: K562
NCI-H23 = system: NCI-H23
SK-MEL-2 = system: SK-MEL-2
XF498 = system: XF498

C[C@@H]1CC(=O)C2CCCC1C2=O (stereo partly specified)
GI50 (786-0): > 100 µM (inactive)
GI50 (A498): > 100 µM (inactive)
GI50 (A549): > 100 µM (inactive)
GI50 (ACHN): > 100 µM (inactive)
GI50 (CAKI-1): > 100 µM (inactive)
GI50 (CCRF-CEM): > 100 µM (inactive)
GI50 (COLO 205): 45.7 µM (inactive)
GI50 (DLD-1): > 100 µM (inactive)
GI50 (DMS-114): > 100 µM (inactive)
GI50 (DMS-273): > 100 µM (inactive)
GI50 (EKVX): > 100 µM (inactive)
GI50 (HCC 2998): > 100 µM (inactive)
GI50 (HCT-116): > 100 µM (inactive)
GI50 (HCT-15): > 100 µM
GI50 (HL-60): > 100 µM (inactive)
GI50 (HOP-18): > 100 µM (inactive)
GI50 (HOP-62): > 100 µM (inactive)
GI50 (HOP-92): > 100 µM (inactive)
GI50 (HT-29): > 100 µM (inactive)
GI50 (IGROV-1): > 100 µM (inactive)
GI50 (KM-20L2): > 100 µM (inactive)
GI50 (KM12): > 100 µM (inactive)
GI50 (LOX IMVI): > 100 µM (inactive)
GI50 (LXFL 529): > 100 µM (inactive)
GI50 (M14): > 100 µM (inactive)
GI50 (M19-MEL): > 100 µM (inactive)
GI50 (MOLT-4): > 100 µM (inactive)
GI50 (Malme-3M): > 100 µM (inactive)
GI50 (NCI-H226): > 100 µM (inactive)
GI50 (NCI-H460): > 100 µM (inactive)
GI50 (NCI-H522): > 100 µM (inactive)
GI50 (OVCAR-3): > 100 µM (inactive)
GI50 (OVCAR-4): > 100 µM (inactive)
GI50 (OVCAR-5): > 100 µM (inactive)
GI50 (OVCAR-8): > 100 µM (inactive)
GI50 (RPMI-8226): > 100 µM (inactive)
GI50 (RXF 393): > 100 µM (inactive)
GI50 (RXF 631): > 100 µM (inactive)
GI50 (SF-268): > 100 µM (inactive)
GI50 (SF-295): > 100 µM (inactive)
GI50 (SF-539): > 100 µM (inactive)
GI50 (SK-MEL-28): > 100 µM (inactive)
GI50 (SK-MEL-5): > 100 µM (inactive)
GI50 (SK-OV-3): > 100 µM (inactive)
GI50 (SN12C): > 100 µM (inactive)
GI50 (SNB-19): > 100 µM (inactive)
GI50 (SNB-75): > 100 µM (inactive)
GI50 (SNB-78): > 100 µM (inactive)
GI50 (SR): > 100 µM (inactive)
GI50 (SW-620): > 100 µM (inactive)
GI50 (TK-10): > 100 µM (inactive)
GI50 (U-251): > 100 µM (inactive)
GI50 (UACC-257): > 100 µM (inactive)
GI50 (UACC-62): > 100 µM (inactive)
GI50 (UO-31): > 100 µM (inactive)

O=C(N/C(=C\c1ccc(F)cc1)c1nc2ccccc2[nH]1)c1ccccc1
GI50 (786-0): > 100 µM (inactive)
GI50 (A498): > 100 µM (inactive)
GI50 (A549): > 100 µM (inactive)
GI50 (ACHN): > 100 µM (inactive)
GI50 (CAKI-1): > 100 µM (inactive)
GI50 (CCRF-CEM): > 100 µM (inactive)
GI50 (COLO 205): > 100 µM (inactive)
GI50 (DLD-1): > 100 µM (inactive)
GI50 (DMS-114): > 100 µM (inactive)
GI50 (EKVX): > 100 µM (inactive)
GI50 (HCT-116): > 100 µM (inactive)
GI50 (HCT-15): > 100 µM
GI50 (HOP-18): > 100 µM (inactive)
GI50 (HOP-92): 97.1 µM (inactive)
GI50 (HT-29): > 100 µM (inactive)
GI50 (IGROV-1): > 100 µM (inactive)
GI50 (K562): > 100 µM (inactive)
GI50 (KM-20L2): > 100 µM (inactive)
GI50 (KM12): > 100 µM (inactive)
GI50 (LOX IMVI): > 100 µM (inactive)
GI50 (LXFL 529): > 100 µM (inactive)
GI50 (M14): > 100 µM (inactive)
GI50 (M19-MEL): > 100 µM (inactive)
GI50 (MOLT-4): > 100 µM (inactive)
GI50 (Malme-3M): > 100 µM (inactive)
GI50 (NCI-H226): > 100 µM (inactive)
GI50 (NCI-H23): > 100 µM (inactive)
GI50 (NCI-H460): > 100 µM (inactive)
GI50 (NCI-H522): > 100 µM (inactive)
GI50 (OVCAR-3): > 100 µM (inactive)
GI50 (OVCAR-4): > 100 µM (inactive)
GI50 (OVCAR-5): > 100 µM (inactive)
GI50 (OVCAR-8): > 100 µM (inactive)
GI50 (RPMI-8226): > 100 µM (inactive)
GI50 (RXF 393): > 100 µM (inactive)
GI50 (RXF 631): > 100 µM (inactive)
GI50 (SF-268): > 100 µM (inactive)
GI50 (SF-539): > 100 µM (inactive)
GI50 (SK-MEL-28): > 100 µM (inactive)
GI50 (SK-MEL-2): > 100 µM (inactive)
GI50 (SK-MEL-5): > 100 µM (inactive)
GI50 (SK-OV-3): > 100 µM (inactive)
GI50 (SN12C): > 100 µM (inactive)
GI50 (SNB-19): > 100 µM (inactive)
GI50 (SNB-75): 56 µM (inactive)
GI50 (SNB-78): > 100 µM (inactive)
GI50 (SW-620): > 100 µM (inactive)
GI50 (TK-10): > 100 µM (inactive)
GI50 (U-251): > 100 µM (inactive)
GI50 (UACC-257): > 100 µM (inactive)
GI50 (UACC-62): > 100 µM (inactive)
GI50 (UO-31): > 100 µM (inactive)
GI50 (XF498): > 100 µM (inactive)

O=C(NN1C(=O)CS(=O)(=O)C1c1cccc(F)c1)c1ccncc1 (stereo unspecified)
GI50 (786-0): > 100 µM (inactive)
GI50 (A498): > 100 µM (inactive)
GI50 (A549): > 100 µM (inactive)
GI50 (ACHN): > 100 µM (inactive)
GI50 (CAKI-1): > 100 µM (inactive)
GI50 (COLO 205): > 100 µM (inactive)
GI50 (DLD-1): > 100 µM (inactive)
GI50 (DMS-114): > 100 µM (inactive)
GI50 (DMS-273): > 100 µM (inactive)
GI50 (HCC 2998): > 100 µM (inactive)
GI50 (HCT-116): > 100 µM (inactive)
GI50 (HCT-15): > 100 µM
GI50 (HL-60): > 100 µM (inactive)
GI50 (HOP-18): < 0.01 µM (active)
GI50 (HOP-62): > 100 µM (inactive)
GI50 (HOP-92): > 100 µM (inactive)
GI50 (HT-29): > 100 µM (inactive)
GI50 (KM12): > 100 µM (inactive)
GI50 (LOX IMVI): > 100 µM (inactive)
GI50 (LXFL 529): > 100 µM (inactive)
GI50 (M14): > 100 µM (inactive)
GI50 (MOLT-4): > 100 µM (inactive)
GI50 (Malme-3M): > 100 µM (inactive)
GI50 (NCI-H226): > 100 µM (inactive)
GI50 (NCI-H23): > 10 µM (inactive)
GI50 (NCI-H460): > 100 µM (inactive)
GI50 (NCI-H522): > 100 µM (inactive)
GI50 (OVCAR-4): > 100 µM (inactive)
GI50 (OVCAR-5): > 100 µM (inactive)
GI50 (RPMI-8226): > 100 µM (inactive)
GI50 (RXF 393): > 100 µM (inactive)
GI50 (RXF 631): > 100 µM (inactive)
GI50 (SF-268): > 100 µM (inactive)
GI50 (SF-295): > 100 µM (inactive)
GI50 (SK-MEL-28): > 100 µM (inactive)
GI50 (SK-MEL-2): > 100 µM (inactive)
GI50 (SK-MEL-5): > 100 µM (inactive)
GI50 (SK-OV-3): > 100 µM (inactive)
GI50 (SN12C): > 100 µM (inactive)
GI50 (SNB-19): > 100 µM (inactive)
GI50 (SNB-75): 83.8 µM (inactive)
GI50 (SNB-78): > 10 µM (inactive)
GI50 (SR): > 100 µM (inactive)
GI50 (SW-620): > 100 µM (inactive)
GI50 (TK-10): > 100 µM (inactive)
GI50 (U-251): > 10 µM (inactive)
GI50 (UACC-257): > 100 µM (inactive)
GI50 (XF498): 82.6 µM (inactive)
